In patent publication US20260058014A1, “CHARACTERIZATION OF TUMOR HET[…] A […]” (Foundation Medicine, Inc., priority 2022, published 2026) one finds mPFS data, which are given here for 1 compound.

For this assay, the system named is EGFR driver alteration-positive NSCLC patients. Briefly: Progression free survival from start of 1st line Osimertinib in a real-world clinico-genomic NSCLC cohort stratified by tumor heterogeneity score. The assay is classed as in vivo, human. The source says: Starting with a patient cohort of 15,035 patients, the data was filtered (for biopsy type and bait set). The data was then filtered to exclude data for patients for whom a computational tumor purity was less than or equal to 20% or for whom a computational tumor purity value was missing. The remaining patient data was divided according to whether the samples were early-stage specimens, late-stage specimens, or of ambiguous origin. For the late-stage specimens, data for patients who were first diagnosed prior to Jan. […] Finally, data was selected for N=135 1st line Osimertinib-treated, EGFR driver alteration-positive NSCLC patients for whom tumor samples were sequenced at most a year prior to start of therapy.
The group of 135 patients were then divided into three tertiles with 45 patients each. […] For patients without a subsequent line of therapy, the event date was the earliest progression event that occurred more than 14 days after the index date, or the date of death. • Censor date: patients with a subsequent line of therapy were censored at their last clinic note date if it occurred between the index date and the start date of the subsequent line of therapy plus 14 days. […]

`C=CC(=O)Nc1cc(Nc2nccc(-c3cn(C)c4ccccc34)n2)c(OC)cc1N(C)CCN(C)C` [Osimertinib] displayed a mPFS (Score category High, EGFR CCF category Low, N=12) of 6.54 and a mPFS (Score category Low, EGFR CCF category High, N=39) of 16.01.
